# Measurements: patent publication US10894788B2, “Inhibitors of cyclin-dependent kinases” (Kinnate Biopharma Inc., priority 2018, dated 2021)
# Biological target: CDK12 wt/CycK (Homo sapiens (Human), UniProt Q9NYV4)
# Assay: Radiometric protein kinase assay (33PanQinase Activity Assay), Assay Condition A (thiol containing conditions)
# Format: biochemical
# Details: not given
# Experimental: Example 1—Assay Condition A (Thiol Containing Conditions)
# Objective: The IC50 profile of test compounds was determined using three protein kinases.
# Test compounds: The compounds were provided as pre-weighed powders in vials. The compounds were dissolved to 1×10^−02M by adding DMSO. 100 μl of each of the resulting stock solutions were transferred into column 2 of four 96 well “master plates”.
# Prior to testing, the 1×10^−02M stock solutions in column 2 of the master plates were subjected to a serial, semi-logarithmic dilution using 100% DMSO as a solvent. […] Column 1 and 7 were filled with 100% DMSO as controls. Subsequently, 2×10 μl from each well of the serial diluted copy plates were aliquoted with a 96 channel pipettor into two identical sets of “compound dilution plates”.
# In the process, 90 μl H2O were added to each well of a set of compound dilution plates. To minimize potential precipitation, the H2O was added to each plate only a few minutes before the transfer of the compound solutions into the assay plates. Each plate was shaken thoroughly, resulting in a “compound dilution plate/10% DMSO”.
# For the assays, 5 μl solution from each well of the compound dilution plates/10% DMSO were transferred into the assay plates. The final volume of the assay was 50 μl. All compounds were tested at 10 final assay concentrations in the range from 1×10^−04M to 3×10^−09M, in singlicate. The final DMSO concentration in the reaction cocktails was 1% in all cases.
# Recombinant protein kinases: All protein kinases were expressed in Sf9 insect cells or in E. coli as recombinant GST-fusion proteins or His-tagged proteins, either as full-length or enzymatically active fragments. All kinases were produced from human cDNAs and purified by either GSH-affinity chromatography or immobilized metal. Affinity tags were removed from a number of kinases during purification. The purity of the protein kinases was examined by SDS-PAGE/Coomassie staining, the identity was checked by mass spectroscopy.
# Protein kinase assay: A radiometric protein kinase assay (^33PanQinase® Activity Assay) was used for measuring the kinase activity of the three protein kinases. All kinase assays were performed in 96-well FlashPlates™ from PerkinElmer (Boston, Mass., USA) in a 50 μl reaction volume. The reaction cocktail was pipetted in four steps in the following order: • 20 μl of assay buffer (standard buffer) • 5 μl of ATP solution (in H2O) • 5 μl of test compound (in 10% DMSO) • 20 μl enzyme/substrate mix
# The following amounts of enzyme and substrate were used per well:
# The reaction cocktails were incubated at 30° C. for 60 minutes. The reaction was stopped with 50 μl of 2% (v/v) H3PO4, plates were aspirated and washed two times with 200 μl 0.9% (w/v) NaCl. Incorporation of ^33Pi was determined with a microplate scintillation counter (Microbeta, Wallac). All assays were performed with a BeckmanCoulter/SAGIAN™ Core System.
# Evaluation of raw data: The median value of the counts in column 1 (n=8) of each assay plate was defined as “low control”. This value reflects unspecific binding of radioactivity to the plate in the absence of a protein kinase but in the presence of the substrate. The median value of the counts in column 7 of each assay plate (n=8) was taken as the “high control”, i.e. full activity in the absence of any inhibitor. The difference between high and low control was taken as 100% activity.
# As part of the data evaluation the low control value from a particular plate was subtracted from the high control value as well as from all 80 “compound values” of the corresponding plate. The residual activity (in %) for each well of a particular plate was calculated by using the following formula: Res. Activity (%)=100×[(cpm of compound−low control)/(high control−low control)]
# The residual activities for each concentration and the compound IC50 values were calculated using Quattro Workflow V3.1.1 (Quattro Research GmbH, Munich, Germany).
# Sequence of CDK12 wt/CycK (Q9NYV4 whole entry): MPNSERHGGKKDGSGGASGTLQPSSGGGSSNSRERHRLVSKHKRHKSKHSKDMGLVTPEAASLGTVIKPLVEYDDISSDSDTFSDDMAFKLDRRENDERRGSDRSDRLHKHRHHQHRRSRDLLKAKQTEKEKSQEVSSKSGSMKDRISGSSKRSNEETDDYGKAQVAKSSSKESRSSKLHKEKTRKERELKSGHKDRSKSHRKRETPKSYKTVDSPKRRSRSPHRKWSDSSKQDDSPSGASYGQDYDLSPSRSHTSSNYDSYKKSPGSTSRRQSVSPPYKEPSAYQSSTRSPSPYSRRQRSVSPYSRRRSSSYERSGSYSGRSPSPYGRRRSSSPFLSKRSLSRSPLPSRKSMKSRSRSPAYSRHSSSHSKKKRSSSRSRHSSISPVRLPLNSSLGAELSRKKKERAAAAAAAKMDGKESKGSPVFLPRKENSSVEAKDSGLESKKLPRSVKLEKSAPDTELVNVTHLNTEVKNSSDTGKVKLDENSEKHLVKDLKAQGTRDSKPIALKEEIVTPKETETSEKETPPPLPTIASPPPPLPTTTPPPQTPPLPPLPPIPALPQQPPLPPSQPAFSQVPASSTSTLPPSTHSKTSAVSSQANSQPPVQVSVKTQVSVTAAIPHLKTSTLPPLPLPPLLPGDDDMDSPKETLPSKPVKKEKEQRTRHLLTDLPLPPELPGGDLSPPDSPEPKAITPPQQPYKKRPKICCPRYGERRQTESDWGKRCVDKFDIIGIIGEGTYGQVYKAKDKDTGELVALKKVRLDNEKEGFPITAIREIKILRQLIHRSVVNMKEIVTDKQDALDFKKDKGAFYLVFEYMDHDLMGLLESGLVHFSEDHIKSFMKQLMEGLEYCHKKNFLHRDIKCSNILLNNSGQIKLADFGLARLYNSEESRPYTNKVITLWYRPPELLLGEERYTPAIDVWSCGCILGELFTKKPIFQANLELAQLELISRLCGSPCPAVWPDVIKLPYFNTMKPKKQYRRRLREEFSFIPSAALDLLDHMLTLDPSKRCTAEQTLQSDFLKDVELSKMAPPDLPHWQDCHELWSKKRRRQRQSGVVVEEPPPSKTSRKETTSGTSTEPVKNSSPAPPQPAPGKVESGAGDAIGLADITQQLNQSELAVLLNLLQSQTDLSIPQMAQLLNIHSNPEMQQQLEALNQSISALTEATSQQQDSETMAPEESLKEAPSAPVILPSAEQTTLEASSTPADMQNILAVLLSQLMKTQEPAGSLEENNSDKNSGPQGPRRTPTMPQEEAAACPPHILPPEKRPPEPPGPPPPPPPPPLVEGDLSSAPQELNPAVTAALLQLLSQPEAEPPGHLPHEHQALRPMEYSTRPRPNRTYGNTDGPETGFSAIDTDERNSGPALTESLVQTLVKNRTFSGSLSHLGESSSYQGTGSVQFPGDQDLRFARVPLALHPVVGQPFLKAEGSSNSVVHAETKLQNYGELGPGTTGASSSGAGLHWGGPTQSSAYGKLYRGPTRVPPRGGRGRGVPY
# Sequence of CDK12 wt/CycK (O75909 whole entry partner): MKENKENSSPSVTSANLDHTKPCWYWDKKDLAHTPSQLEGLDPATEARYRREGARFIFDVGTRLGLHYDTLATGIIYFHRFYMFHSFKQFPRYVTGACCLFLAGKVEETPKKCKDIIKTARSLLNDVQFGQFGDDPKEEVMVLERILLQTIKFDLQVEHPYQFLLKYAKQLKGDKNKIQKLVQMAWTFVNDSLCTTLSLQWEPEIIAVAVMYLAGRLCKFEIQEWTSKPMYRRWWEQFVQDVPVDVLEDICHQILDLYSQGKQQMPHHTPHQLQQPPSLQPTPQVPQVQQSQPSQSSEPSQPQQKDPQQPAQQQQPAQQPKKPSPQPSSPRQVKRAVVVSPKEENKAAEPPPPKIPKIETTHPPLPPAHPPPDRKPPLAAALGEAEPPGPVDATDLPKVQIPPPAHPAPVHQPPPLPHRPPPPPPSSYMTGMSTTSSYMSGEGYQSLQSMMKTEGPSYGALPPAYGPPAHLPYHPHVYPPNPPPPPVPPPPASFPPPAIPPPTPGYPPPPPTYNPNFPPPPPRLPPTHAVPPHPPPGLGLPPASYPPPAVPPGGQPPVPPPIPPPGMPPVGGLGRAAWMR
row,SMILES,IC50
1,"C=CC(=O)Nc1ccc(C(=O)N2CC[C@@H](Nc3ncc(Cl)cn3)C2)cc1OCCN(C)C [Example 112, (R)—N-(4-(3-((5-chloropyrimidin-2-yl)amino)pyrrolidine-1-carbonyl)-2-(2-(dimethylamino)ethoxy)phenyl)acrylamide]",100 to 1000 nM
2,"C=CC(=O)Nc1ccc(C(=O)N2CC[C@@H](Nc3ncc(Cl)c(OCC)n3)C2)cc1OCCN(C)C [Example 144, (R)—N-(4-(3-((5-chloro-4-ethoxypyrimidin-2-yl)amino)pyrrolidine-1-carbonyl)-2-(2-(dimethylamino)ethoxy)phenyl)acrylamide]",< 100 nM

# Same assay, conditions: thiol containing conditions (1.2 mM DTT), ATP 0.3 μM; read-out: CDK12 IC50 Condition A
row,IC50,SMILES
1,< 100 nM,"C#Cc1cnc(N[C@@H]2CCN(C(=O)c3ccc(NC(=O)C=C)cc3)C2)nc1OC [Example 182, (R)—N-(4-(3-((5-ethynyl-4-methoxypyrimidin-2-yl)amino)pyrrolidine-1-carbonyl)phenyl)acrylamide]"
2,< 100 nM,"[2H]C([2H])([2H])Oc1nc(N[C@@H]2CCN(C(=O)c3ccc(NC(=O)C=C)cc3)C2)ncc1Cl [Example 93, (R)—N-(4-(3-((5-chloro-4-(trideuteromethoxy)pyrimidin-2-yl)amino)pyrrolidine-1-carbonyl)phenyl)acrylamide]"
3,10000 to 30000 nM,"C=CC(=O)Nc1ccc(C(=O)N2CC[C@@H](Nc3ncc(C(F)(F)F)c(N(C)C)n3)C2)cc1 [Example 118, (R)—N-(4-(3-((4-(dimethylamino)-5-(trifluoromethyl)pyrimidin-2-yl)amino)pyrrolidine-1-carbonyl)phenyl)acrylamide]"
4,10000 to 30000 nM,"C=CC(=O)Nc1ccc(C(=O)N2CC[C@@H](Nc3ncc(C#N)c(OC)n3)C2)cc1 [Example 160, (R)—N-(4-(3-((5-cyano-4-methoxypyrimidin-2-yl)amino)pyrrolidine-1-carbonyl)phenyl)acrylamide]"
5,100 to 1000 nM,"COc1nc(N[C@@H]2CCN(C(=O)c3ccc(NC(=O)/C=C/CN(C)C)cc3)C2)ncc1Cl [Example 115, (R,E)-N-(4-(3-((5-chloro-4-methoxypyrimidin-2-yl)amino)pyrrolidine-1-carbonyl)phenyl)-4-(dimethylamino)but-2-enamide]"
6,< 100 nM,"[2H]c1nc(N[C@@H]2CCN(C(=O)c3ccc(NC(=O)C=C)cc3)C2)nc(OC([2H])([2H])[2H])c1Cl [Example 138, (R)—N-(4-(3-((5-chloro-4-deutero-6-(trideuteromethoxy)pyrimidin-2-yl)amino)pyrrolidine-1-carbonyl)phenyl)acrylamide]"
7,10000 to 30000 nM,"C=CC(=O)Nc1ccc(C(=O)N2CC[C@H](Nc3ncc(Cl)cn3)C2)cc1 [Example 155, (S)—N-(4-(3-((5-chloropyrimidin-2-yl)amino)pyrrolidine-1-carbonyl)phenyl)acrylamide]"
8,< 100 nM,"C=CC(=O)Nc1ccc(C(=O)N2CC[C@@H](Nc3ncc(Cl)c(N)n3)C2)cc1 [Example 90, (R)—N-(4-(3-((4-amino-5-chloropyrimidin-2-yl)amino)pyrrolidine-1-carbonyl)phenyl)acrylamide]"
9,< 100 nM,"C=CC(=O)Nc1ccc(C(=O)N2CC[C@@H](Nc3ncc(Cl)c(OCCO)n3)C2)cc1 [Example 137, (R)—N-(4-(3-((5-chloro-4-(2-hydroxyethoxy)pyrimidin-2-yl)amino)pyrrolidine-1-carbonyl)phenyl)acrylamide]"
10,< 100 nM,"C#Cc1cnc(N[C@@H]2CCN(C(=O)c3ccc(NC(=O)C=C)cc3)C2)nc1 [Example 181, (R)—N-(4-(3-((5-ethynylpyrimidin-2-yl)amino)pyrrolidine-1-carbonyl)phenyl)acrylamide]"

# More lines, now with the values behind:
row,SMILES,IC50
1,"C=CC(=O)Nc1ccc(C(=O)N2C[C@H](Nc3ncc(Cl)c(OC)n3)C[C@H]2C)cc1 [Example 183, N-(4-((2R,4R)-4-((5-chloro-4-methoxypyrimidin-2-yl)amino)-2-methylpyrrolidine-1-carbonyl)phenyl)acrylamide]",< 100 nM
2,"C=CC(=O)N1CCc2ccc(C(=O)N3CC[C@@H](Nc4ncc(Cl)cn4)C3)cc21 [Example 136, (R)-1-(6-(3-((5-chloropyrimidin-2-yl)amino)pyrrolidine-1-carbonyl)indolin-1-yl)prop-2-en-1-one]",100 to 1000 nM
3,"C=CC(=O)Nc1ccc(C(=O)N2CC[C@@H](Nc3ncc(Br)cn3)C2)cc1O[C@@H]1CCN(C)C1 [Example 163, N-(4-((R)-3-((5-bromopyrimidin-2-yl)amino)pyrrolidine-1-carbonyl)-2-(((R)-1-methylpyrrolidin-3-yl)oxy)phenyl)acrylamide]",< 100 nM
4,"CN(C)C/C=C/C(=O)Nc1ccc(C(=O)N2CC[C@@H](Nc3ncc(Cl)cn3)C2)cc1 [Example 98, (R,E)-N-(4-(3-((5-chloropyrimidin-2-yl)amino)pyrrolidine-1-carbonyl)phenyl)-4-(dimethylamino)but-2-enamide]",1000 to 10000 nM
5,"C=CC(=O)Nc1ccc(C(=O)N2CC[C@@H](Nc3ncc(Cl)c(OCCOCC)n3)C2)cc1 [Example 153, (R)—N-(4-(3-((5-chloro-4-(2-ethoxyethoxy)pyrimidin-2-yl)amino)pyrrolidine-1-carbonyl)phenyl)acrylamide]",100 to 1000 nM
6,"C=CC(=O)Nc1nc(C(=O)N2CC[C@@H](Nc3ncc(C(F)(F)F)cn3)C2)cs1 [Example 100, (R)—N-(4-(3-((5-(trifluoromethyl)pyrimidin-2-yl)amino)pyrrolidine-1-carbonyl)thiazol-2-yl)acrylamide]",100 to 1000 nM
7,"C=CC(=O)Nc1ccc(C(=O)N2CC[C@@H](Nc3ncc(Cl)cn3)C2)cc1N1CCC(N(C)C)C1 (stereo partly drawn) [Example 127, N-(4-((R)-3-((5-chloropyrimidin-2-yl)amino)pyrrolidine-1-carbonyl)-2-(3-(dimethylamino)pyrrolidin-1-yl)phenyl)acrylamide]",100 to 1000 nM
8,"COc1nc(N[C@@H]2CCN(C(=O)c3ccc(NC(=O)/C=C/CN4CCC[C@H](F)C4)cc3)C2)ncc1Cl [Example 177, (E)-N-(4-((R)-3-((5-chloro-4-methoxypyrimidin-2-yl)amino)pyrrolidine-1-carbonyl)phenyl)-4-((S)-3-fluoropiperidin-1-yl)but-2-enamide]",100 to 1000 nM
9,"COc1nc(N[C@@H]2CCN(C(=O)c3ccc(NC(=O)/C=C/CN4CC[C@@H](F)C4)cn3)C2)ncc1Cl [Example 170, (E)-N-(6-((R)-3-((5-chloro-4-methoxypyrimidin-2-yl)amino)pyrrolidine-1-carbonyl)pyridin-3-yl)-4-((R)-3-fluoropyrrolidin-1-yl)but-2-enamide]",100 to 1000 nM
10,"C=CC(=O)Nc1ccc(C(=O)N2CC[C@@H](Nc3ncc(Cl)c(OCC)n3)C2)cc1OC1CCOC1 (stereo partly drawn) [Example 143, N-(4-((R)-3-((5-chloro-4-ethoxypyrimidin-2-yl)amino)pyrrolidine-1-carbonyl)-2-((tetrahydrofuran-3-yl)oxy)phenyl)acrylamide]",< 100 nM
11,"COc1nc(N[C@@H]2CCN(C(=O)c3ccc(NC(=O)/C=C/CN4CCC[C@@H](F)C4)cn3)C2)ncc1Cl [Example 176, (E)-N-(6-((R)-3-((5-chloro-4-methoxypyrimidin-2-yl)amino)pyrrolidine-1-carbonyl)pyridin-3-yl)-4-((R)-3-fluoropiperidin-1-yl)but-2-enamide]",100 to 1000 nM
12,"COc1nc(N[C@@H]2CCN(C(=O)c3ccc(NC(=O)/C=C/CN4CC[C@H](F)C4)cc3)C2)ncc1Cl [Example 169, (E)-N-(4-((R)-3-((5-chloro-4-methoxypyrimidin-2-yl)amino)pyrrolidine-1-carbonyl)phenyl)-4-((S)-3-fluoropyrrolidin-1-yl)but-2-enamide]",< 100 nM
13,"C=CC(=O)Nc1cccc(C(=O)N2CC[C@@H](Nc3ncc(Cl)c(OC)n3)C2)c1 [Example 105, (R)—N-(3-(3-((5-chloro-4-methoxypyrimidin-2-yl)amino)pyrrolidine-1-carbonyl)phenyl)acrylamide]",100 to 1000 nM
